{"source": "patent US20120239131A1", "about": "“METHODS AND APPARATUS FOR TREATMENT OF ANEURYSMAL TISSUE” (Medtronic Vascular, Inc., priority 2011, published 2012)", "format_in_all_cases": "in vivo, ApoE−/− mice", "key": {"CCL2": {"system": "CCL2", "experiment": "Aortic mural gene expression, RT-PCR (TLDA)", "conditions": "fold change over ApoE−/− control; aorta, 28 days Ang II infusion", "description": "(§1) ApoE−/− mice used in this study were divided into different pretreatment groups: 1) Fluvastatin-MF; 2) Doxycycline-MD; 3) Irbesartan-MI; 4) Telmisartan-MT; 5) Control (water) and fed medicated chow or medicated drinking water 1 week prior to pump implantation. AngII (1000 ng·kg^−1 of body weight·min^−1) was infused subcutaneously via Alzet mini-osmotic pumps for 28 days. All mice were maintained on the medicated chow (MI & MT) or medicated drinking water (MF & MD) treatments which were delivered daily for a total of 28 days following pump implantation.\n(§2) In order to determine the effect of the various treatments on the progressive enlargement of the experimental AAAs the mice were followed with high frequency trans-abdominal ultrasound. Maximum aortic diameter was measured and recorded prior to pump implantation and then at 3, 7, 14, 21, and 28 days. All mice were sacrificed 28 days after pump implantation. Aortae were harvested and subjected to either histological analysis (Elastic Masson trichome, MAC2, CD31 and TUNEL staining) and analysis of mural gene expression. Plasma drug concentrations of experimental compounds were quantified on the day of sacrifice using high performance liquid chromatography (HPLC).\n(§3) Total RNA was extracted from homogenized aortas using the Qiazol lysis reagent and RNeasy Lipid Tissue Mini kit. DNAse treatment was included in the procedure. RNA concentration was determined utilizing the Quant iT RNA assay kit. Complimentary deoxyribonucleic acid (cDNA) was synthesized from 1 μg RNA using High reverse cDNA transcription kit. Briefly the reaction tubes containing RNA, reverse transcriptase, buffer, RNAse inhibitor, and nuclease free water were incubated at 25° C. for 10 minutes to allow annealing. Reverse transcription was performed at 37° C. for 120 min, followed by a 5 sec incubation at 85° C. to inactivate the reverse transcriptase enzyme. The cDNA samples were cooled at 4° C. and stored at −80° C. until further use.\n(§4) Real time PCR was performed using a 384-well Taqman low density array (TLDA) card. Each sample specific PCR mix contained 50 ng of total RNA converted to cDNA. The PCR reaction for Taqman assays contained 50 μl Master Mix (Taqman Universal PCR Master Mix,) and 50 ul of cDNA and RNAase free water. Assays were performed to include appropriate controls (no template control). The RT-PCR protocol included an initial step of 50° C. (2 minutes) […], denaturation by a hot start at 95° C. for 10 min, followed by 40 cycles of a 2 step program (denaturation at 95° C. for 15 secs for primer annealing/extension at 60° C. for 1 min). Fluorescence data was collected at 60° C. Fluorescence was quantified with ABI PRISM 7900HT Sequence Detection System. To verify amplification of a specific target cDNA, data generated was analyzed using SDS 2.2.3 software (Sequence Detection System Software, Applied Biosystems). For all amplification plots, the baseline data were set with the automatic CT function available with SDS 2.2.3 calculating the optimal baseline range and threshold value by using the AutoCT algorithm. According to the manufacturer's instruction, a CT value of ≧39 corresponds to nonspecific amplification marking the limits of detection. For endogenous control GAPDH was normalized to B2M. For relative quantification (RQ), pooled ApoE−/− control was used as the calibrator (with expression equal to 1)."}, "CCR2": {"system": "CCR2", "experiment": "Aortic mural gene expression, RT-PCR (TLDA)", "conditions": "fold change over ApoE−/− control; aorta, 28 days Ang II infusion", "description": "as §1, §2, §3, §4"}, "CCR5": {"system": "CCR5", "experiment": "Aortic mural gene expression, RT-PCR (TLDA)", "conditions": "fold change over ApoE−/− control; aorta, 28 days Ang II infusion", "description": "as §1, §2, §3, §4"}, "CXCR4": {"system": "CXCR4", "experiment": "Aortic mural gene expression, RT-PCR (TLDA)", "conditions": "fold change over ApoE−/− control; aorta, 28 days Ang II infusion", "description": "as §1, §2, §3, §4"}, "Cathepsin B": {"system": "Cathepsin B", "experiment": "Aortic mural gene expression, RT-PCR (TLDA)", "conditions": "fold change over ApoE−/− control; aorta, 28 days Ang II infusion", "description": "as §1, §2, §3, §4"}, "Cathepsin S": {"system": "Cathepsin S", "experiment": "Aortic mural gene expression, RT-PCR (TLDA)", "conditions": "fold change over ApoE−/− control; aorta, 28 days Ang II infusion", "description": "as §1, §2, §3, §4"}, "Cybb": {"system": "Cybb", "experiment": "Aortic mural gene expression, RT-PCR (TLDA)", "conditions": "fold change over ApoE−/− control; aorta, 28 days Ang II infusion", "description": "as §1, §2, §3, §4"}, "Fibronectin -1": {"system": "Fibronectin -1", "experiment": "Aortic mural gene expression, RT-PCR (TLDA)", "conditions": "fold change over ApoE−/− control; aorta, 28 days Ang II infusion", "description": "as §1, §2, §3, §4"}, "HMOX 1": {"system": "HMOX 1", "experiment": "Aortic mural gene expression, RT-PCR (TLDA)", "conditions": "fold change over ApoE−/− control; aorta, 28 days Ang II infusion", "description": "as §1, §2, §3, §4"}, "IL-7": {"system": "IL-7", "experiment": "Aortic mural gene expression, RT-PCR (TLDA)", "conditions": "fold change over ApoE−/− control; aorta, 28 days Ang II infusion", "description": "as §1, §2, §3, §4"}, "ITGAL": {"system": "ITGAL", "experiment": "Aortic mural gene expression, RT-PCR (TLDA)", "conditions": "fold change over ApoE−/− control; aorta, 28 days Ang II infusion", "description": "as §1, §2, §3, §4"}, "ITGB2": {"system": "ITGB2", "experiment": "Aortic mural gene expression, RT-PCR (TLDA)", "conditions": "fold change over ApoE−/− control; aorta, 28 days Ang II infusion", "description": "as §1, §2, §3, §4"}, "LOX": {"system": "LOX", "experiment": "Aortic mural gene expression, RT-PCR (TLDA)", "conditions": "fold change over ApoE−/− control; aorta, 28 days Ang II infusion", "description": "as §1, §2, §3, §4"}, "MAPK8": {"system": "MAPK8", "experiment": "Aortic mural gene expression, RT-PCR (TLDA)", "conditions": "fold change over ApoE−/− control; aorta, 28 days Ang II infusion", "description": "as §1, §2, §3, §4"}, "MMP-12": {"system": "MMP-12", "experiment": "Aortic mural gene expression, RT-PCR (TLDA)", "conditions": "fold change over ApoE−/− control; aorta, 28 days Ang II infusion", "description": "as §1, §2, §3, §4"}, "MMP-8": {"system": "MMP-8", "experiment": "Aortic mural gene expression, RT-PCR (TLDA)", "conditions": "fold change over ApoE−/− control; aorta, 28 days Ang II infusion", "description": "as §1, §2, §3, §4"}, "Osteopontin": {"system": "Osteopontin", "experiment": "Aortic mural gene expression, RT-PCR (TLDA)", "conditions": "fold change over ApoE−/− control; aorta, 28 days Ang II infusion", "description": "as §1, §2, §3, §4"}, "Rac2": {"system": "Rac2", "experiment": "Aortic mural gene expression, RT-PCR (TLDA)", "conditions": "fold change over ApoE−/− control; aorta, 28 days Ang II infusion", "description": "as §1, §2, §3, §4"}, "Runx3": {"system": "Runx3", "experiment": "Aortic mural gene expression, RT-PCR (TLDA)", "conditions": "fold change over ApoE−/− control; aorta, 28 days Ang II infusion", "description": "as §1, §2, §3, §4"}, "TIMP2": {"system": "TIMP2", "experiment": "Aortic mural gene expression, RT-PCR (TLDA)", "conditions": "fold change over ApoE−/− control; aorta, 28 days Ang II infusion", "description": "as §1, §2, §3, §4"}, "TNF-α": {"system": "TNF-α", "experiment": "Aortic mural gene expression, RT-PCR (TLDA)", "conditions": "fold change over ApoE−/− control; aorta, 28 days Ang II infusion", "description": "as §1, §2, §3, §4"}, "Tgfβ1": {"system": "Tgfβ1", "experiment": "Aortic mural gene expression, RT-PCR (TLDA)", "conditions": "fold change over ApoE−/− control; aorta, 28 days Ang II infusion", "description": "as §1, §2, §3, §4"}, "Vav1": {"system": "Vav1", "experiment": "Aortic mural gene expression, RT-PCR (TLDA)", "conditions": "fold change over ApoE−/− control; aorta, 28 days Ang II infusion", "description": "as §1, §2, §3, §4"}, "[1]": {"system": "genes involved in the pathophysiology of AAA", "experiment": "Drug inhibition effect on differentially expressed genes, overall", "description": "as §1, §2, §3, §4"}, "AAA": {"system": "AAA", "experiment": "Aortic diameter by ultrasonography, ApoE−/−+Ang II AAA model", "conditions": "pretreatment 1 week before Ang II infusion, followed to 28 days; versus control and doxycycline", "description": "The ApoE^−/−+Ang II AAA model is well established and supported by current scientific literature. Mice genetically predisposed to hypercholesterolemia develop aneurysms when treated with angiotensin II. Aneurysms generally develop within the first week after pump implantation and share many important pathologic characteristics with human AAA disease. ApoE−/− mice used in this study were divided into different pretreatment groups: 1) Fluvastatin-MF; 2) Doxycycline-MD; 3) Irbesartan-MI; 4) Telmisartan-MT; 5) Control (water) and fed medicated chow or medicated drinking water 1 week prior to pump implantation. AngII (1000 ng·kg^−1 of body weight·min^−1) was infused subcutaneously via Alzet mini-osmotic pumps for 28 days. All mice were maintained on the medicated chow (MI & MT) or medicated drinking water (MF & MD) treatments which were delivered daily for a total of 28 days following pump implantation. In order to determine the effect of the various treatments on the progressive enlargement of the experimental AAAs the mice were followed with high frequency trans-abdominal ultrasound. Maximum aortic diameter was measured and recorded prior to pump implantation and then at 3, 7, 14, 21, and 28 days. All mice were sacrificed 28 days after pump implantation. Aortae were harvested and subjected to either histological analysis (Elastic Masson trichome, MAC2, CD31 and TUNEL staining) and analysis of mural gene expression. Plasma drug concentrations of experimental compounds were quantified on the day of sacrifice using high performance liquid chromatography (HPLC)."}, "aneurysm": {"system": "aneurysm", "experiment": "Aneurysm incidence over time, ApoE−/−+Ang II AAA model", "conditions": "aneurysm = dissection or more than 50% increase in diameter; versus doxycycline and saline control", "description": "as §1, §2\nAneurysm was defined as either the presence of dissection or more than 50% increase in diameter."}, "[2]": {"experiment": "Plasma drug content by HPLC", "conditions": "mouse plasma on day of sacrifice", "description": "as §2"}}, "note": "“Also recorded” adds a separate entry of the source."}
{"smiles": "CCCCC1=NC2(CCCC2)C(=O)N1Cc1ccc(-c2ccccc2-c2nnn[nH]2)cc1", "note": "[Irbesartan]", "values": [{"measurement": "CCL2 expression", "setting": "CCL2", "result": "− (0 to 1 = −)"}, {"measurement": "CCR2 expression", "setting": "CCR2", "result": "− (0 to 1 = −)"}, {"measurement": "CCR5 expression", "setting": "CCR5", "result": "− (0 to 1 = −)"}, {"measurement": "CXCR4 expression", "setting": "CXCR4", "result": "− (0 to 1 = −)"}, {"measurement": "Cathepsin B expression", "setting": "Cathepsin B", "result": "− (0 to 1 = −)"}, {"measurement": "Cathepsin S expression", "setting": "Cathepsin S", "result": "− (0 to 1 = −)"}, {"measurement": "Cybb expression", "setting": "Cybb", "result": "− (0 to 1 = −)"}, {"measurement": "Fibronectin -1 expression", "setting": "Fibronectin -1", "result": "− (0 to 1 = −)"}, {"measurement": "HMOX 1 expression", "setting": "HMOX 1", "result": "− (0 to 1 = −)"}, {"measurement": "IL-7 expression", "setting": "IL-7", "result": "− (0 to 1 = −)"}, {"measurement": "ITGAL expression", "setting": "ITGAL", "result": "− (0 to 1 = −)"}, {"measurement": "ITGB2 expression", "setting": "ITGB2", "result": "− (0 to 1 = −)"}, {"measurement": "LOX expression", "setting": "LOX", "result": "− (0 to 1 = −)"}, {"measurement": "MAPK8 expression", "setting": "MAPK8", "result": "− (0 to 1 = −)"}, {"measurement": "MMP-12 expression", "setting": "MMP-12", "result": "+++ (3.1 to 10 = +++)"}, {"measurement": "MMP-8 expression", "setting": "MMP-8", "result": "++ (1.51 to 3 = ++)"}, {"measurement": "Osteopontin expression", "setting": "Osteopontin", "result": "++ (1.51 to 3 = ++)"}, {"measurement": "Rac2 expression", "setting": "Rac2", "result": "− (0 to 1 = −)"}, {"measurement": "Runx3 expression", "setting": "Runx3", "result": "− (0 to 1 = −)"}, {"measurement": "TIMP2 expression", "setting": "TIMP2", "result": "− (0 to 1 = −)"}, {"measurement": "TNF-α expression", "setting": "TNF-α", "result": "− (0 to 1 = −)"}, {"measurement": "Tgfβ1 expression", "setting": "Tgfβ1", "result": "− (0 to 1 = −)"}, {"measurement": "Vav1 expression", "setting": "Vav1", "result": "− (0 to 1 = −)"}, {"measurement": "Down-regulation of genes involved in the pathophysiology of AAA", "setting": "[1]; ApoE−/− + Ang II AAA model, summary of Table 2", "result": "down-regulating the expression of genes"}, {"measurement": "Total Score", "setting": "[1]; sum of heat map grades over 25 genes, ApoE−/− + Ang II group scored 55", "result": 7}, {"measurement": "Inhibition of aneurysm development/growth (aortic diameter)", "setting": "AAA", "result": "effective in inhibiting/preventing aneurysm development"}, {"measurement": "Inhibition of aneurysm development (aneurysm incidence)", "setting": "aneurysm", "result": "effective in inhibiting aneurysm development; also recorded: inhibited aneurysm development well"}, {"measurement": "Plasma drug content", "setting": "[2]", "result": "lower plasma concentration"}]}
